The results in this text go back to patent US20120122870A1, “Treatment Of Ischemia-Reperfusion Injury” (MUSC FOUNDATION FOR RESEARCH DEVELOPMENT, priority 2009, published 2012).

The test system of assay [1] is hepatic warm IR in C57BL/6 mice. Nature of the assay: Liver necrosis (H+E, image analysis) after hepatic warm IR. Type of assay: in vivo. The protocol: Warm IR upregulates SK in the liver. IR injury to the liver occurs in LT. Since SK is associated with inflammatory processes, we investigated whether IR affects SK expression in the liver. Male C57BL/6 mice (8-9 weeks) were gavaged with ABC294640 (ABC, 50 mg/kg) or an equal volume of vehicle (0.375% Tween-80 in phosphate buffer) 1 h prior to surgery. Under ether anesthesia, hepatic ischemia was induced by clamping the hepatic artery and portal vein to the upper three lobes of the liver (i.e., about 70% of total liver). One hour later, the ischemic liver was reperfused by opening the vascular clamp. Livers were collected 6 h later under pentobarbital anesthesia (80 mg/kg, i.p.) and SK was detected immunohistochemically. […] SK expression increased markedly after hepatic IR (FIG. 9 middle). Upregulation of SK occurred most overtly in hepatocytes in the midzonal regions of the liver lobule.
ABC294640 prevents hepatic warm IR-induced cell death. SK increased after hepatic IR, therefore, we investigated whether ABC294640 protects against hepatic IR injury. […] Necrotic areas became panlobular after 1 h-ischemia plus 6 h of reperfusion (FIG. 10, middle). Necrotic area, quantified by computerized image analysis of 10 random fields per slide, accounted for 68% of the liver tissue (FIG. 11A). […] Hepatic apoptosis was evaluated by terminal deoxylnucleotidyl transferase-mediated deoxyuridine triphosphate biotin nick end labeling (TUNEL) (FIG. 11B). […]
Histology: Under pentobarbital anesthesia (50 mg/kg, i.p.), livers were rinsed with 10 ml normal saline and perfusion-fixed with 4% paraformaldehyde in phosphate buffer, embedded in paraffin, and sections were stained with hematoxylin-eosin (H+E). Necrotic areas in sections were quantified by image analysis using an Image-1/AT image acquisition and analysis system (Universal Imaging Corp., West Chester, Pa.) incorporating an Axioskop 50 microscope (Carl Zeiss, Inc., Thornwood, NY) and a 10× objective lens.

For assay [2], the system named is PMN infiltration in liver. The assay is described as follows: PMN infiltration (MPO immunohistochemistry) after hepatic warm IR. The format is in vivo, mice. The protocol: ABC294640 prevents hepatic warm ischemia-reperfusion (IR)-induced polymorphonuclear leukocyte (PMN) infiltration in mice. Hepatic warm ischemia was induced by clamping the mouse hepatic artery and portal vein to the upper three lobes of the liver as described in the original application. One hour later, the ischemic liver was reperfused by opening the vascular clamp. Livers were collected 6 h later and myeloperoxidase (MPO), a marker of PMNs, was detected immunohistochemically. MPO-positive cells were counted in 10 fields selected randomly per slide in a blinded manner to assess PMN infiltration. MPO-positive cells were ˜1/high power field (hpf) in livers from sham-operated mice (FIG. 16). Six hours after reperfusion, MPO-positive cells increased almost 10-fold, indicating pronounced inflammation. […] ABC294640 (50 mg/kg, i.g. once) decreased PMN infiltration by ˜70% at 6 h after reperfusion (FIG. 16). Livers from mice exposed to one dose of ABC294640 had lower PMN infiltration compared to the untreated mice even at 2 weeks after reperfusion. […] Immunohistochemistry: Sections were deparaffinized in xylene, rehydrated in a series of graded alcohol concentrations and placed in phosphate buffered saline with 0.1% Tween-20. […] Appropriate peroxidase-conjugated secondary antibodies (DAKO Corp.) were then applied, followed by 3,3′-diaminobenzidine chromagen as the peroxidase substrate. A light counterstain of Meyer's hematoxylin was applied.

For assay [3], the system named is lean liver transplantation in rats. Nature of the assay: Lean liver transplantation, serum ALT. The format is in vivo. The conditions noted are these: 60 μM in UW and Ringer's solutions plus 50 mg/kg i.p. to recipients; 6 h after LT; 8 h cold storage. The protocol: ABC294640 decreases graft injury after lean LT. To investigate whether ABC294640 protects liver grafts after LT, a pilot study was conducted. Lean livers were explanted and stored in UW solution for 8 h. ABC294640 was added to the UW solution and the lactated Ringer's post-storage solution at a concentration of 60 μM and injected into the recipients (50 mg/kg, i.p.) immediately after transplantation. […] Liver transplantation: Inbred male Lewis rats (200-250 g) were used to prevent immunological interference. Under ether anesthesia, heparin (200 IU) in 0.5 mL of lactated Ringer's solution was injected into the subhepatic vena cava. A 4-mm long stent prepared from polyethylene tubing (PE50) was inserted into the common bile duct and secured with a 6-0 suture. Livers were then flushed with 5 ml of ice-cold UW cold storage solution. Venous cuffs prepared from 14-gauge i.v. catheters were placed in the subhepatic vena cava and the portal vein. Liver explants were stored in UW solution (0-1° C.) for 4-24 h, rinsed with lactated Ringer's solution and then implanted (n=10 in each group). […] Clinical chemistry: Blood samples were collected from the vena cava at various times, and ALT and bilirubin were measured enzymatically using analytic kits from Pointe Scientific.

Entries after “also recorded” stand apart in the source; their conditions may differ.

Consider `O=C(NCc1ccncc1)C12CC3CC(C1)CC(c1ccc(Cl)cc1)(C3)C2` [ABC294640, 3-(4-chlorophenyl)-N-(pyridin-4-ylmethyl)adamantane-1-carboxamide], for which, in assay [1] (50 mg/kg, 1 h-ischemia plus 6 h of reperfusion, image analysis of 10 random fields), the “necrotic area of liver tissue” value is around 7%. Also, the “necrosis / cell death after hepatic IR (in words)” value in assay [1] (1 h-ischemia plus 6 h-reperfusion) is on record as “attenuates necrosis; also recorded: prevents cell death”. Besides, the “attenuation of necrosis compared to vehicle-treated livers” value in assay [1] (1 h-ischemia plus 6 h of reperfusion) was around 90%. The “decrease of PMN infiltration (MPO-positive cells)” value in assay [2] (50 mg/kg, i.g. once, 6 h after reperfusion) is listed as around 70%. For the same compound, the “PMN infiltration after hepatic IR (in words)” value in assay [2] (livers harvested 6 h or 2 weeks after IR) is “inhibits PMN infiltration”. Further, in assay [2] (one dose, 2 weeks after reperfusion), the “PMN infiltration compared to untreated mice” value was “lower”. In assay [3], the “serum ALT after lean LT vs vehicle” value is “markedly attenuated; also recorded: decreases ALT release”.
